Article PMC7868322, “Rational Design of A Novel Small-Molecule HIV-1 Inactivator Targeting Both gp120 and gp41 of HIV-1” (Frontiers in Pharmacology, 2021)
Where two headings read alike, the source gives them in different places.

How the values were obtained:
[1] = biological target: T1, 6HB formation between N36 and C34-biotin (Human immunodeficiency virus type 1 group M subtype B, UniProt P04578); experiment: ELISA inhibition of six-helix bundle formation; format: biochemical, HIV-1; conditions: IC50, inhibition of 6HB formation between N36 and C34-biotin, peptides 0.5 μM final
T1 construct: preincubated with N36 peptide (2 μM, 50 μL) at 37°C for 1 h; purchased NIH AIDS Reagent Program
Procedure: An inhibitor (compound or C-peptide control) at graded concentrations was preincubated with N36 peptide (2 μM, 50 μL) at 37°C for 1 h. […] Subsequently, 50 μL of the mixture were added to the wells of the NC-1-coated plate, followed by incubation for 1 h. Then, HRP-labeled streptavidin and the substrate were added sequentially. The optical density at 450 nm was measured using a microplate reader (Tecan, Männedorf, Switzerland).

[2] = Cytotoxicity (CCK-8); format: cell-based; conditions: human
Procedure: Cell viability was detected following the instructions in the protocol provided in the cell counting kit-8 (CCK-8; Dojindo Molecular Technologies, Gaithersburg, MD, USA) as previously described ([Yang et al., 2018]). Briefly, MT-2 cells and CEMx174 517 5.25 M7 cells (3 × 10^4/well) were incubated with compounds at different concentrations at 37°C for 48 h. Then, the supernatant was discarded, and CCK8 diluted 10 times with fresh medium was added (200 μL/well). After 2–6 h of incubation at 37°C, the absorbance at 450 nm was measured using a microplate reader (Tecan, Männedorf, Switzerland).

[3] = test system: HIV-1 Bal (R5); experiment: Inhibition of HIV-1 infection (p24 ELISA); format: cell-based
[4] = test system: HIV-1 Bal; experiment: Inactivation of cell-free HIV-1 virions (PEG-6000 precipitation, p24 ELISA); format: cell-based
[5] = test system: HIV-1 IIIB; experiment: as above; format: cell-based; conditions: Human immunodeficiency virus 1, IIIB virus inactivation
[6] = test system: HIV-1 IIIB (X4); experiment: Inhibition of HIV-1 infection (p24 ELISA); format: cell-based
[7] = biological target: T2, HIV-1 HXB2 gp120 (Human immunodeficiency virus type 1 group M subtype B, UniProt P04578); experiment: Flow cytometry competition with gp120 CD4bs-targeting mAbs on CHO-WT cells; format: binding; conditions: 100 µM
T2 construct: CHO-WT cells expressing HIV-1 HXB2 gp120; host or cells: CHO-WT cells
Procedure: Flow cytometry was used to detect compounds that competed with gp120 CD4bs-targeting mAbs for binding to gp120. In brief, 100 µL of FD016 at a concentration of 100 µM or PBS was first incubated with CHO-WT cells expressing HIV-1 HXB2 gp120 for 30 min at room temperature, and then gp120 CD4bs-targeting mAbs (5 μg/mL, 100 µL) and FITC-labeled goat anti-human secondary antibody were added successively. After three washes, the cells were analyzed with flow cytometry. ELISA was carried out to detect the activity of compounds that inhibit the binding of soluble CD4 (sCD4) or gp120 CD4bs-targeting mAbs to gp120 as previously described ([Si et al., 2004]; [Curreli et al., 2014]). Briefly, for sCD4 and gp120 binding, 50 µL of HIV-1 IIIB gp120 at 0.5 μg/mL was captured on polystyrene plate coated with sheep anti-gp120 antibody D7324 (Aalto Bio Reagents). sCD4 (ImmunoDiagnostics, Inc.) at 200 ng/mL was then added in the presence of an equal volume of different concentrations of compounds or PBS and incubated at 37°C for 1 h. […] After adding 3,3′,5,5′-tetramethylbenzidine chromogen substrate and sulfuric acid, the absorbance at 450 nm (A450) was recorded using a Microplate Reader (Tecan, Männedorf, Switzerland).

[8] = test system: 92/TH/009 (A/E, R5); experiment: Inactivation of cell-free HIV-1 clinical virus; format: cell-based; conditions: inactivation of cell-free virions, means ± SD
[9] = test system: PBL288 (C, R5); experiment: Inactivation of cell-free HIV-1 clinical virus; format: cell-based; conditions: inactivation of cell-free virions, means ± SD
[10] = test system: KNH1135 (A, R5); experiment: microbe, parasite or virus in culture; format: cell-based, HIV-1; conditions: inactivation of cell-free virions, clinical virus KNH1135 (A, R5); means ± SD
[11] = test system: SM145/GS 016 (C, R5); experiment: Inactivation of cell-free HIV-1 clinical virus; format: cell-based; conditions: inactivation of cell-free virions, means ± SD
[12] = CEMx174 5.25 M7 cells, read-out: CC50, CEMx174 5.25 M7 cell
[13] = MT-2 cells, read-out: CC50, MT-2 cell
[14] = Human immunodeficiency virus 1, laboratory-adapted strain Bal, CEMx174 5.25 M7 cells, p24 ELISA, read-out: IC50, inhibition of HIV-1 Bal infection
[15] = Human immunodeficiency virus 1, MT2, laboratory-adapted strain IIIB, MT-2 cells, p24 ELISA, read-out: IC50, inhibition of HIV-1 IIIB infection

Q: With O=C(O)c1cc(-c2ccc(/C=C3\SC(=S)N(CCc4ccc(O)cc4)C3=O)o2)ccc1Cl [FD017, (Z)-2-Chloro-5-(5-((3-(4-Hydroxyphenethyl)-4-oxo-2-Thioxothiazolidin-5-ylidene)methyl)furan-2-yl)benzoic Acid] as the molecule, how does the IC50 [1] read?
A: 1360 nM

Q: And the CC50 at 48 h [2, 12]?
A: 39800 nM

Q: What about the CC50 at 48 h [2, 13] of the same molecule?
A: 47900 nM

Q: What about the IC50 ([3]; Human immunodeficiency virus 1, Bal, combination experiment, alone, read-out: IC50 of FD017, Alone) of the same molecule?
A: 1480 nM

Q: And the IC50 ([3]; Human immunodeficiency virus 1, Bal, in mixture with FD016, read-out: IC50 of FD017, In mixture)?
A: 910 nM

Q: What about the IC50 [3, 14] of the same molecule?
A: 830 nM

Q: What about the EC50 ([4]; Human immunodeficiency virus 1, Bal virus inactivation, alone, read-out: EC50 of FD017, Alone) of the same molecule?
A: > 5000 nM

Q: And the EC50 ([4]; Human immunodeficiency virus 1, Bal virus inactivation, in mixture with FD016, read-out: EC50 of FD017, In mixture)?
A: 1380 nM

Q: And the EC50 ([5]; alone, read-out: EC50 of FD017, Alone)?
A: > 10000 nM

Q: And the EC50 ([5]; in mixture with FD016, read-out: EC50 of FD017, In mixture)?
A: 1210 nM

Q: What about the IC50 [6, 15] of the same molecule?
A: 1440 nM

Q: What about the IC50 ([6]; Human immunodeficiency virus 1, IIIB, combination experiment, alone, read-out: IC50 of FD017, Alone) of the same molecule?
A: 1800 nM

Q: And the IC50 ([6]; Human immunodeficiency virus 1, IIIB, in mixture with FD016, read-out: IC50 of FD017, In mixture)?
A: 590 nM

Q: Which results are given for CC1(C)CC(NC(=O)C(=O)Nc2ccc(Cl)c(F)c2)CC(C)(C)N1 [FD016, N^1-(4-Chloro-3-Fluorophenyl)-N^2-(2,2,6,6-Tetramethylpiperidin-4-yl) Oxalamide]?
A: Inhibition of gp120 CD4bs mAbs (B12 and N6) binding to gp120-expressing CHO cells [7]: could inhibit the interaction of gp120 and CD4bs-targeting mAbs effectively; CC50 at 48 h [2, 12]: > 50000 nM; CC50 at 48 h [2, 13]: > 50000 nM; IC50 ([3]; Human immunodeficiency virus 1, Bal, combination experiment, alone, read-out: IC50 of FD016, Alone): 18800 nM; IC50 ([3]; Human immunodeficiency virus 1, Bal, in mixture with FD017, read-out: IC50 of FD016, In mixture): 1820 nM; IC50 [3, 14]: 17000 nM; EC50 ([4]; Human immunodeficiency virus 1, Bal virus inactivation, alone, read-out: EC50 of FD016, Alone): > 20000 nM; EC50 ([4]; Human immunodeficiency virus 1, Bal virus inactivation, in mixture with FD017, read-out: EC50 of FD016, In mixture): 2630 nM; EC50 ([5]; alone, read-out: EC50 of FD016, Alone): > 10000 nM; EC50 ([5]; in mixture with FD017, read-out: EC50 of FD016, In mixture): 2510 nM; IC50 [6, 15]: 5930 nM; IC50 ([6]; Human immunodeficiency virus 1, IIIB, combination experiment, alone, read-out: IC50 of FD016, Alone): 4400 nM; IC50 ([6]; Human immunodeficiency virus 1, IIIB, in mixture with FD017, read-out: IC50 of FD016, In mixture): 1190 nM

Q: Which EC50 [8] does the source give for Maraviroc [reference compound] here?
A: > 500 nM

Q: What about the EC50 [9] of the same molecule?
A: > 500 nM

Q: And the EC50 [10]?
A: > 500 nM

Q: And the EC50 [11]?
A: > 500 nM

Q: And the IC50 ([3]; laboratory-adapted strain Bal, CEMx174 5.25 M7 cells, p24 ELISA, read-out: IC50, inhibition of HIV-1 Bal infection)?
A: 1 nM

Q: And the EC50 ([4]; cell-free virions, 1 h at 4°C, PEG-6000 precipitation, read-out: EC50, inactivation of HIV-1 Bal)?
A: > 500 nM
